Marks after values point to notes of the source that are not given here.
Columns and labels:
Test in all cases: Drug-radiation combination clonogenic survival (LQ model)
Type in all cases: cell-based, human
MDA-MB-468 cells = test system: MDA-MB-468 cells
Method: (§1) 5 × 10^5 cells were seeded in T25 cm^2 tissue culture flasks and incubated overnight. The sub-confluent cells were then treated either for 4-h or 48-h with IQ9 (0–5000 nM) or doxorubicin (10–20 nM). Following drug treatment, cells were collected, counted, and plated at low-density, in triplicate, and incubated, at 37 °C, 5% CO2, undisturbed, for 2 weeks for TNBC cells and 3 weeks for luminal cells, for colony formation. Colonies were fixed (50% methanol in 0.9% saline solution) and stained (0.5% crystal violet solution). Colonies consisting of more than 50 cells were confirmed by microscopy and scored as survivors. The plating efficiency (PE) was calculated as numbers of colonies formed/ numbers of cells plated. For single-agent treatment, drug or radiation, the surviving fraction was calculated as: number of colonies formed/ (numbers of cell plated x PE). For drug radiation combination experiments, cytotoxicity of drug treatment was accounted for by calculating surviving fraction as: number of colonies formed from each radiation dose/ (number of cells plated × PE × surviving fraction of drug-treated cell at 0 Gy).
(§2) Sub-confluent cells were irradiated with a dose of 2, 4, 6, or 8 Gy (at a dose rate of 0.87 Gy/min) using an RS225 x-ray cabinet irradiation system (Xstrahl Limited, UK), fitted with a 0.5 mm Cu filter and run at 195 kV, 10 mA. Following irradiation, cells were immediately trypsinised and plated for clonogenic survival. Sham-irradiated cells were used as controls. Dose-response curves were plotted as a function of radiation dose on a log/ linear plot. Clonogenic survival calculation software (CS-CAL), developed by the Translational Radiation Oncology Group, German Cancer Research Centre was used to fit survival curves to the linear-quadratic (LQ) model (equation: […] ). The software can be accessed online at http://angiogenesis.dkfz.de/oncoexpress/software/cs-cal/. For drug-radiation combinations, cells were treated with 1000 nM IQ9 (2500 nM for T47D) for 4 h followed by irradiation (0–8 Gy). For 48 h drug treatment experiments, MDA-MB-231 and T47D cells were treated with clonogenic IC50 concentrations of IQ9 before irradiation. The sensitiser enhancement ratio (SER), calculated by dividing the X-ray dose causing 1% cell survival in the absence of drug treatment by the X-ray dose leading to 1% cell survival in the presence of drug treatment, was used to evaluate the degree of radiosensitisation.
(§3) IC50 values were calculated from dose-response curves using an SPSS regression model between inhibition ratios and concentration gradients. The radiobiological parameters: alpha (α), beta (β), α/β ratio, and surviving fraction at 2 Gy (SF2) were extracted from the survival curves fitted using the LQ model. All results are presented as average ± standard deviation (SD) of three independent experiments, each performed in triplicate. Data were analysed using the student T-test and ANOVA one-way test. Statistical analysis was performed using SPSS 23.0 software. Values of P < 0.05 were considered statistically significant.

T47D cells = conditions: for SER (sensitiser enhancement ratio): at 1% cell survival
Method: as §1, §2, §3

MDA-MB-436 cells = test system: MDA-MB-436 cells
Method: as §1, §2, §3

MCF-7 cells = conditions: 1000 nM IQ9 for 4 h followed by irradiation
Method: as §1, §2, §3

MDA-MB-231 cells = conditions: for SER (sensitiser enhancement ratio): at 1% cell survival
Method: as §1, §2, §3

[1] = 1000 nM IQ9 for 4 h followed by irradiation
[2] = 1000 nM IQ9 for 4 h followed by irradiation, at 1% cell survival
[3] = IQ9 for 4 h followed by irradiation, vs control
[4] = 2500 nM IQ9 for 4 h followed by irradiation
[5] = IQ9 exposure 48 h before irradiation
[6] = clonogenic IC50 concentration of IQ9 for 48 h before irradiation

COC1=CC(=O)c2c(c(COc3c(F)cc(F)cc3F)cn2C)C1=O [IQ9]
SF2 (surviving fraction at 2 Gy) (MDA-MB-468 cells; [1]): 0.19 ± 0.01 | α (MDA-MB-468 cells; [1]): 0.85 ± 0.08* Gy^−1 | α/β Ratio (MDA-MB-468 cells; [1]): 85.00 ± 8.18 | β (MDA-MB-468 cells; [1]): 0.01 ± 0.00 Gy^−2 | SER (sensitiser enhancement ratio) (MDA-MB-468 cells; [2]): 1.30 | factor of increase in α (MDA-MB-468 cells; [3]): 1.4 | SF2 (surviving fraction at 2 Gy) (T47D cells; [4]): 0.45 ± 0.02 | α (T47D cells; [4]): 0.47 ± 0.04 Gy^−1 | α/β Ratio (T47D cells; [4]): 15.66 ± 1.17 | β (T47D cells; [4]): 0.03 ± 0.00 Gy^−2 | SER (sensitiser enhancement ratio) (T47D cells; [4]): 1.00 | radiosensitivity (in words) (T47D cells; [5]): no significant increase in radiosensitivity | radiosensitisation (in words) (T47D cells; IQ9 for 4 h followed by irradiation): no altered radiosensitisation | SF2 (surviving fraction at 2 Gy) (T47D cells; [6]): 0.31 ± 0.04 | α (T47D cells; [6]): 0.40 ± 0.12 Gy^−1 | α/β Ratio (T47D cells; [6]): 7.27 ± 5.53 | β (T47D cells; [6]): 0.05 ± 0.02 Gy^−2 | SER (sensitiser enhancement ratio) (T47D cells; [6]): 1.00 | SF2 (surviving fraction at 2 Gy) (MDA-MB-436 cells; [1]): 0.07 ± 0.01 | α (MDA-MB-436 cells; [1]): 1.33 ± 0.06* Gy^−1 | α/β Ratio (MDA-MB-436 cells; [1]): 66.53 ± 2.89 | β (MDA-MB-436 cells; [1]): 0.02 ± 0.00 Gy^−2 | SER (sensitiser enhancement ratio) (MDA-MB-436 cells; [2]): 1.43 | factor of increase in α (MDA-MB-436 cells; [3]): 1.8 | SF2 (surviving fraction at 2 Gy) (MCF-7 cells): 0.24 ± 0.10 | α (MCF-7 cells): 0.58 ± 0.18 Gy^−1 | α/β Ratio (MCF-7 cells): 7.25 ± 3.19 | β (MCF-7 cells): 0.08 ± 0.02 Gy^−2 | SER (sensitiser enhancement ratio) (MCF-7 cells; at 1% cell survival): 1.08 | SF2 (surviving fraction at 2 Gy) (MDA-MB-231 cells; [1]): 0.21 ± 0.02 | α (MDA-MB-231 cells; [1]): 0.70 ± 0.17 Gy^−1 | α/β Ratio (MDA-MB-231 cells; [1]): 11.67 ± 3.63 | β (MDA-MB-231 cells; [1]): 0.06 ± 0.01 Gy^−2 | SER (sensitiser enhancement ratio) (MDA-MB-231 cells; [1]): 1.20 | radiosensitivity (in words) (MDA-MB-231 cells; [5]): no significant increase in radiosensitivity | SF2 (surviving fraction at 2 Gy) (MDA-MB-231 cells; [6]): 0.22 ± 0.08 | α (MDA-MB-231 cells; [6]): 0.85 ± 0.04 Gy^−1 | α/β Ratio (MDA-MB-231 cells; [6]): 25.60 ± 4.62 | β (MDA-MB-231 cells; [6]): 0.03 ± 0.01 Gy^−2 | SER (sensitiser enhancement ratio) (MDA-MB-231 cells; [6]): 1.07

Source: publication PMC8426295, “Cytotoxic and radiosensitising effects of a novel thioredoxin reductase inhibitor in breast cancer” (Investigational New Drugs, 2021)
